The conditions of the data set: Liquid, Ebulliometric method (Recirculating still).

Structures are written as SMILES. ± gives the expanded uncertainty stated by the source.

By vapor or sublimation pressure is commonly meant the pressure of vapour in equilibrium with the condensed phase.

Consider `FCC(F)(F)F` [1,1,1,2-tetrafluoroethane], for which the “vapor or sublimation pressure” value (253.15 K) was 131 ± 10 kPa, the “vapor or sublimation pressure” value (263.15 K) was found to be 203 ± 10 kPa, the “vapor or sublimation pressure” value (278.15 K) is 353 ± 10 kPa and the “vapor or sublimation pressure” value (292.92 K) was 571 ± 10 kPa.

Turning to `CCF` [fluoroethane], the “vapor or sublimation pressure” value (253.15 K) is reported as 214 ± 10 kPa, the “vapor or sublimation pressure” value (263.15 K) stood at 311 ± 10 kPa, the “vapor or sublimation pressure” value (278.15 K) was determined as 517 ± 10 kPa and the “vapor or sublimation pressure” value (292.92 K) worked out at 802 ± 10 kPa.

The values are drawn from the NIST ThermoML archive (doi:10.1021/je800505y).
